We go through 90 molecules from PubChem BioAssay AID1421 (Emory University Molecular Libraries Screening Center, 2008).

Values joined by “and” are separate entries in the source; they are usually repeats but may differ in a detail not shown here. Equal values may be shown once. Active and inactive are the calls of the source. The rule behind the calls is not given here.

This test addresses Prostaglandin E2 receptor EP2 subtype (Homo sapiens) (UniProt P43116). Put plainly: EP2 receptor modulators, dose response, cell-based, human EP2, PGE2 EC50 shift (AID 1421). The note with it: EP2-expressing cells, PGE2 EC50 shift by compound; for PGE2 EC50 with compound: measured here: PGE2 EC50 at 6.7 uM compound.

Prostaglandin E2 receptor EP2 subtype (Homo sapiens), sequence (P43116 whole entry, looked up): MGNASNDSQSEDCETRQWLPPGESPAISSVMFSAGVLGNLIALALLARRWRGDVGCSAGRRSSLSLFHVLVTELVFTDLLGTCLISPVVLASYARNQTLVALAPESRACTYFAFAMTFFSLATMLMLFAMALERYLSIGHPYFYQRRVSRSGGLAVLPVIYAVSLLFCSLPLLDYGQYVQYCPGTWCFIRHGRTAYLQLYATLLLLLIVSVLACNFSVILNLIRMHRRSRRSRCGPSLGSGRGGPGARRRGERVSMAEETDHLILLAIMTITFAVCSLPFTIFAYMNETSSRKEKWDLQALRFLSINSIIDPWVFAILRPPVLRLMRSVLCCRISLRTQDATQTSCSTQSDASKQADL

In the case of `CC(=O)N(c1cccc(Br)c1)C1C=CS(=O)(=O)C1` (configuration not stated), the PGE2 EC50 with compound was 0.98 nM.
For the molecule `Oc1c(Cl)cc(Cl)cc1Sc1cc(Cl)cc(Cl)c1O`, the PGE2 EC50 with compound was 0.58 nM.
Same read-out and setting: the same measure for `O=C(CO/N=C/c1ccccc1)N1c2ccccc2Oc2ccccc21`: 1.45 nM; for `C=C(C)COc1ccc2c(c1)CC[C@@H]1[C@H]3C/C(=N/O)C(=O)[C@]3(C)CC[C@@H]21`: 1.03 nM; for `CCn1c2ccccc2c2cc(/C=N/n3c(C)nnc3C)ccc21`: 1.15 nM.
Consider `Cc1ccccc1S(=O)(=O)c1c(C)cc(C)n(CC(C)C)c1=O`, for which the PGE2 EC50 with compound turned out to be 2.47 nM.
For the molecule `C/C(=N\NC(=O)NC1CCCCC1)C1CCCCC1`, the outcome was active and the PGE2 EC50 with compound worked out at 1.79 nM.
With `CC/C(=C\C1CCCCC1)C(NP(=O)(c1ccccc1)c1ccccc1)c1ccccc1` (configuration not stated), the PGE2 EC50 with compound is 1.01 nM.
The same measure, in the same setting: for `c1ccc(-c2cc(-c3ccncc3)nc3ccc4ccccc4c23)cc1` the value was 0.69 nM; for `Nn1cnc2c(c1=O)C1(CCCCC1)Cc1ccccc1-2`, 0.81 nM.
Consider `CC(=O)c1cc(C#N)c(SCc2ccccc2)nc1C`, for which the PGE2 EC50 with compound turned out to be 0.83 nM.
On to `CCCC(=O)N1CCCC(c2nc(-c3cccs3)no2)C1` (configuration not stated), for which the PGE2 EC50 with compound was 1.2 nM.
In the case of `Cn1c(=O)c2c(nc(CN3CCN(c4ccccc4)CC3)n2Cc2c(F)cccc2Cl)n(C)c1=O`, the PGE2 EC50 with compound worked out at 1.38 nM.
As to `Cc1cccc(C(=O)Nc2cccc(OCC(=O)O)c2)c1`, the PGE2 EC50 with compound was determined as 6.72 nM.
Same read-out and setting: the same measure for `C=CCSc1ncnc2sc(C)c(C)c12`: 1.3 nM.
Consider `Cc1ccccc1C(=O)Nc1ccccc1N1CCCCC1`, for which the outcome was active and the PGE2 EC50 with compound is 1.41 nM.
On to `Cc1ccccc1C(=O)Nc1ccccc1Sc1ccccc1`, for which the PGE2 EC50 with compound is 0.86 nM.
For the molecule `CN(/N=C/C=C/c1ccccc1)C1=NS(=O)(=O)c2ccccc21`, the PGE2 EC50 with compound came out at 0.68 nM.
`CCc1ccc(OCc2n[nH]c(=S)n2C(C)CCCC(C)C)cc1` (configuration not stated): the PGE2 EC50 with compound was determined as 1.4 nM.
Consider `O=S(=O)(C=C(c1ccccc1)c1ccccc1)c1ccccc1`, for which the PGE2 EC50 with compound turned out to be 2.7 nM.
On the same count and under the same terms, for `O=C(Cc1ccc(Cl)cc1)Nc1ccccc1Sc1ccccc1` the value was 1.07 nM; for `COc1ccc(-c2csc3nc(C)nc(N4CCC(C)CC4)c23)cc1OC`, 0.95 nM.
As for `O=C1CCCc2ccccc2N1Cc1cccc(Cl)c1`, the PGE2 EC50 with compound is 2.62 nM.
On the same count and under the same terms, for `CCOC(=O)CCCCCCCCCCCCC1C=CCC1` (configuration not stated) the value was 0.96 nM; for `Cc1ccc(-n2c(Cc3cccc4ccccc34)n[nH]c2=S)c(C)c1`, 0.68 nM.
As to `Cc1noc(C)c1CSc1ncnc2sc3c(c12)CCC3`, the outcome was active and the PGE2 EC50 with compound was 0.87 nM.
With `Cn1c(=O)c2c(nc(SCC(=O)c3cccs3)n2Cc2ccc(F)cc2)n(C)c1=O`, the PGE2 EC50 with compound worked out at 0.99 nM.
The same measure, in the same setting: for `CC(=O)Nc1nnc(CCN2CCCCC2)s1` the value was 1.46 nM; for `COc1ccccc1CNC(=O)C1(c2ccc(Cl)cc2)CC1`, 0.82 nM.
`C=CCn1c(SCc2c(C)noc2C)nc2ccccc2c1=O`: the PGE2 EC50 with compound was determined as 1.49 nM.
Same read-out and setting: the same measure for `Cc1cccc(OCC(=O)Nc2ccccc2-c2ccccc2)c1`: 0.63 nM.
For the molecule `COc1ccc(S(=O)(=O)N2c3cc(C)ccc3OCC2C(C)(C)C)cc1` (configuration not stated), the result was active and the PGE2 EC50 with compound turned out to be 0.75 nM.
With `O=C(OCC(=O)N1N=C(c2ccc(Cl)cc2)CC1c1ccco1)c1ccco1` (configuration not stated), the PGE2 EC50 with compound was 1.63 nM.
The same measure, in the same setting: for `C#CCN1C(C)=C(C(=O)OC)C(c2cccc([N+](=O)[O-])c2)C(C(=O)OCC)=C1C` (configuration not stated) the value was 2.62 nM; for `CCCC/C(=N\NC(=O)c1ccc(Br)o1)c1ccccc1`, 2.49 nM.
Take `CC1=CC(C)(C)N(S(=O)(=O)c2ccc(F)cc2)c2ccc(C)cc21`: the PGE2 EC50 with compound was determined as 0.8 nM.
As to `CCCCOc1ccccc1NC(=O)c1scc2c1OCCO2`, the PGE2 EC50 with compound was 0.32 nM.
Turning to `COc1cc(OC)cc(-c2nc(N)n[nH]2)c1`, the PGE2 EC50 with compound amounted to 0.8 nM.
The same measure, in the same setting: the same measure for `O=C(Nc1ccccc1-c1nc2ccccc2s1)C1=COCCO1`: 0.46 nM.
Still for that read-out and setting: for `O=C1N2c3ccccc3CCc3cccc(c32)C1(O)C(F)(F)F` (configuration not stated) the value was 0.81 nM; for `COc1cccc(C(=O)Nc2cccc(OCC(=O)O)c2)c1`, 0.93 nM.
On the same count and under the same terms, the same measure for `Cc1ccc(C)n1-c1ccc(N(C)C)cc1`: 0.75 nM; for `CC(C)c1nc(SCc2c(F)cccc2Cl)c2c(=O)n(C)c(=O)n(C)c2n1`: 0.55 nM; for `CC1CCc2cc(F)cc3c(O)c(C(=O)NCc4ccco4)c(=O)n1c23` (configuration not stated): 0.56 nM.
For the molecule `Cc1cc2ccc(C)c(C)c2nc1SCC#N`, the PGE2 EC50 with compound amounted to 1.18 nM.
Same read-out and setting: the same measure for `Oc1ccc(/C=N/N2CCN(C3c4ccccc4-c4ccccc43)CC2)c(O)c1`: 2.52 nM.
Still for that read-out and setting: the same measure for `CCOc1cc(/C=N/NC(N)=O)ccc1OC(=O)c1ccc(C)cc1`: 1.52 nM; for `CCOP(=O)(OCC)c1nc(-c2ccccc2)oc1NCc1ccccc1`: 1.04 nM; for `O=C(Nc1cccc2cccnc12)c1ccc(Br)o1`: 1.22 nM.
For `CCOc1cccc(CNc2ccc(O)cc2)c1OCc1ccc(Cl)cc1`, the PGE2 EC50 with compound is 1.41 nM.
For `S=C1NCCc2ccc(Cl)cc2C1c1ccccc1` (configuration not stated), the PGE2 EC50 with compound turned out to be 1.38 nM.
As for `N#CC1=C(N)S[C@H](C(=O)C23CC4CC(CC(C4)C2)C3)[C@H]1c1ccncc1`, the result was active and the PGE2 EC50 with compound is 0.96 nM.
The matching figures for `O=C(CSc1nnc(-c2ccc(Cl)cc2)n1Cc1ccco1)c1cccs1`: “active” and 2.65 nM.
With `COc1ccccc1Nc1cc(C)nc2c(C)ccc([N+](=O)[O-])c12`, the PGE2 EC50 with compound is 1.12 nM.
Regarding `CCC(C)N(C)C(=O)c1cc2ccccc2c(-c2ccccc2Cl)n1` (configuration not stated), the result was active; the PGE2 EC50 with compound was 0.93 nM and 1.18 nM.
In the case of `O=C1COc2ccccc2N1Cc1ccccc1Cl`, the PGE2 EC50 with compound stood at 1.38 nM.
Consider `CC[C@H](C)C(=O)O[C@H]1C[C@@H](C)C=C2C=C[C@H](C)[C@H](CC[C@@H]3C[C@@H](O)CC(=O)O3)[C@H]21`, for which the PGE2 EC50 with compound was found to be 0.97 nM.
Regarding `Cc1cc(O)c(C=O)c2c1C(=O)Oc1c(COC(=O)/C=C/C(=O)O)c(O)c(C(=O)O)c(C)c1O2`, the PGE2 EC50 with compound turned out to be 0.54 nM.
Still for that read-out and setting: the same measure for `CCOc1ccc(-n2nc3c(=S)[nH]nc(C)c3c2C)cc1`: 3.04 nM.
In the case of `CCOC(=O)c1c(NC(=O)c2cccs2)sc(C)c1CC`, the outcome was active and the PGE2 EC50 with compound was 1.51 nM.
As for `O=C(Nc1ccc2c(c1)OCO2)c1cccc2c1C(=O)N(C1CCCCC1)C2`, the PGE2 EC50 with compound was determined as 0.8 nM.
Still for that read-out and setting: the same measure for `FC(F)(F)c1cccc(/C=N/NC(=S)NC2CCCCC2)c1`: 0.42 nM.
As for `Cc1onc(-c2ccccc2)c1C(=O)N(Cc1ccco1)Cc1cccs1`, the PGE2 EC50 with compound is 0.34 nM.
The same measure, in the same setting: the same measure for `Cc1ccc(/C=N/N(Cc2ccccc2)c2ccccc2)o1`: 0.92 nM; for `c1ccc(CCc2ccccc2-c2nc(-c3ccccn3)no2)cc1`: 0.32 nM.
With `C/C(CCc1oc2ccc(Cl)cc2c1-c1ccc(C)o1)=N\O`, the outcome was active and the PGE2 EC50 with compound amounted to 0.81 nM.
As to `CC1=CCc2c(cc3oc(C)cc(=O)c3c2O)OC1`, the PGE2 EC50 with compound was determined as 1.3 nM.
Regarding `CCN1C(=O)/C(=C2/C=CC=CN2C)SC1=S`, the PGE2 EC50 with compound was found to be 1.64 nM.
`CCCCNc1nc(N(C)c2ccccc2)nc(-n2ccnc2)n1`: the PGE2 EC50 with compound stood at 1.11 nM.
Same read-out and setting: for `Cc1noc(C)c1CSc1nc2sc3c(c2c(=O)n1C)CCCC3` the value was 1.46 nM; for `CCOC(=O)n1c(=O)n(Cc2ccc(Cl)c(Cl)c2)c2ccccc21`, 0.9 nM; for `CCOP(=O)(c1ccccc1)c1nc(-c2ccccc2Cl)oc1N1CCCCC1` (configuration not stated), 1.02 nM.
Still for that read-out and setting: the same measure for `C=CCC1(C)C(=O)N(c2ccccc2)c2ccccc21` (configuration not stated): 2.93 nM; for `Cc1cnn(-c2nc(-c3ccccc3)cc(-c3ccccc3)n2)c1`: 0.95 nM.
Consider `CC1CCCC(C)N1C(=O)c1ccccc1Nc1ccc(SC(F)F)cc1` (configuration not stated), for which the outcome was active and the PGE2 EC50 with compound came to 1.05 nM.
Turning to `COc1ccc(C(=O)Nc2ccccc2N2CCCCC2)cc1[N+](=O)[O-]`, the PGE2 EC50 with compound was determined as 1.01 nM.
On to `CCCCCOC(=O)c1[nH]c2c(c1C)C(=O)C(C(=O)OC)C(C)C2` (configuration not stated), for which the PGE2 EC50 with compound came out at 2.63 nM.
On to `Cc1cc(C)n(-c2nc(C)nc3c2cnn3-c2ccccc2)n1`, for which the PGE2 EC50 with compound was determined as 1.43 nM.
As to `CC(C)(C)C1CCc2onc(C(=O)Nc3cccnc3)c2C1` (configuration not stated), the PGE2 EC50 with compound is 1.31 nM.
On the same count and under the same terms, for `CC(C)(Sc1ccc(CCN(CCCCC2CCCCC2)C(=O)NC2CCCCC2)cc1)C(=O)O` the value was 1.23 nM; for `Nc1[nH]n2c(=O)c3c(nc2c1N=Nc1ccccc1)CCCC3`, 2.09 nM; for `Cc1ccc(N(C(=O)c2snc(C(N)=O)c2N)C(C(=O)NCCC(C)C)c2ccco2)cc1` (configuration not stated), 2.61 nM.
Same read-out and setting: the same measure for `COc1cccc2[nH]c3c(N4CCC(C)CC4)ncnc3c12`: 2.38 nM; for `COc1cccc(-c2nc(N3CC(C)CC(C)C3)c3ccccc3n2)c1O` (configuration not stated): 1.33 nM; for `Cc1ccnc(SCC(=O)n2c3c(c4ccccc42)CC(C)CC3)n1` (configuration not stated): 0.86 nM.
For `O=c1c2cn[nH]c2nc(SCc2ccccc2F)n1-c1ccc(Br)cc1`, the PGE2 EC50 with compound was determined as 0.77 nM.
Turning to `Cc1ccc(-c2cc(C(F)(F)F)nn2-c2ccc(S(N)(=O)=O)cc2)cc1`, the result was active and the PGE2 EC50 with compound is 1.28 nM.
For `CCc1nc(SCC(=O)Nc2nc3c(s2)CCCC3)c2ccccc2n1`, the PGE2 EC50 with compound is 1.51 nM.
For `COc1ncnc2c1oc1nc(CC(C)C)c3c(c12)CCCC3`, the outcome was active and the PGE2 EC50 with compound was 0.91 nM.
Take `CCc1nc2c(cnn2-c2ccc(Cl)cc2)c(=O)n1-c1ccc(OC)cc1`: the PGE2 EC50 with compound was 0.85 nM.
